Reference: US6329395A, “Neuropeptide Y5 receptor antagonists” (Schering Corporation, priority 1999, dated 2001)

What follows are molecules tested against T1, neuropeptide Y5 receptor (Homo sapiens, UniProt Q15761) (assay: NPY Receptor Binding Assay (125I-peptide YY, CHO cell membranes, neuropeptide Y5 receptor)). Conditions: not given.
T1 construct: expressed in transfected cells; host or cells: CHO cells (membranes)
T1 sequence (Q15761 1-445): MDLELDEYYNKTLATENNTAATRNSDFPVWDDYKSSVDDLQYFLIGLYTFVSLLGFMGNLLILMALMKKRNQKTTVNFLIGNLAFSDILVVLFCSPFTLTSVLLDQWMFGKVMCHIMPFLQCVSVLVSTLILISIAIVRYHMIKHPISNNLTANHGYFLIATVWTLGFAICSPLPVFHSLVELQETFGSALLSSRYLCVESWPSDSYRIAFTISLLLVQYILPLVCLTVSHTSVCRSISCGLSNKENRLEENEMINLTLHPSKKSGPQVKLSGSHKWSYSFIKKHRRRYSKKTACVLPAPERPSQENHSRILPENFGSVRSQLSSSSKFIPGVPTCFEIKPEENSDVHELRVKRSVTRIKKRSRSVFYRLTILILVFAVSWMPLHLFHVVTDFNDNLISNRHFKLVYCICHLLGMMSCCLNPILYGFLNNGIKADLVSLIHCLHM
Procedure: Human NPY receptors were expressed in CHO cells. Binding assays were performed in 50 mM HEPES, pH. […] Non-specific binding was determined in the presence of 1 uM NPY. The reaction mixtures were incubated for 90 minutes at 30° C. (NPY1 receptor) or at room temperature (NPY2, NPY4 and NPY5 receptors), then filtered through Millipore MAFC glass fiber filter plates which had been pre-soaked in 0.5% polyethyleneimine. The filters were washed with phosphate-buffered saline, and radioactivity was measured in a Packard TopCount scintillation counter.

SMILES	Ki
CN(C)C(=O)Nc1ccc(SC(C)(C)C)cc1 [Example 1M]	152 nM

Same assay, conditions: neuropeptide Y5 receptor binding; 0.1 nM 125I-peptide YY; room temperature, 90 minutes; pH 7.2; r/h Y5; read-out: r/h Y5 Ki

SMILES	Ki
CCCC(C)(C)Sc1ccc(NC(=O)NC2CCN(C)CC2)cc1 [Example 2Al]	697 nM
CCCC(C)(C)Sc1ccc(NC(=O)N(C)CCCN(C)C)cc1 [Example 2X]	50 nM
CCCC(C)(C)Oc1ccc(NC(=O)CC(C)(C)C)cc1 [Example 6C]	668 nM
CCCCC1(Oc2ccc(NC(=O)N(C)c3ccccc3)cc2)CCCC1 [Example 6N]	66 nM
CCCC(C)(C)Sc1ccc(NC(=O)C(C)(C)N2CCN(c3ccccc3)CC2)cc1 [Example 8D]	18 nM

Other lines, results leading:

Ki	SMILES
13 nM	CCCC(C)(C)Oc1ccc(NC(=O)C(C)(C)C)cc1 [Example 6]
9 nM	CCCC(C)(C)Sc1ccc(NC(=O)C(C)(C)C)cc1F [Example 3]
3 nM	CCCC(C)(C)Sc1ccc(NC(=O)C(C)(C)C)cc1 [Example 1]
0.8 nM	CCCC(C)(C)Sc1ccc(NC(=O)N(C)C2CCN(S(C)(=O)=O)CC2)cc1 [Example 13A]
0.4 nM	CCC(C)(C)CCc1ccc(NC(=O)N(C)CCc2ccncc2)cc1 [Example 19]
